Assay results taken from US12534472B2, “Morphic forms of trilaciclib and methods of manufacture thereof” (Pharmacosmos Holding A/S, priority 2020, dated 2026).
Each block holds one compound with its values, some of them ahead of it.

How the values were obtained:
Type in all cases: physicochemical
[1] = Solvent solubility screen (approximate solubility)
Method: The solvent solubility experiment was carried out using various solvents to determine solid formation. A known volume aliquot (typically 5 volumes) of solvent was added to approximately 10 mg of amorphous Compound 1 as a dihydrochloride. Between each addition, the mixture was checked for dissolution and where no dissolution was apparent, the mixture was heated to ca. 40° C. and checked again. This procedure was continued until dissolution was observed or until 100 volumes of solvent had been added. All observed solids were isolated and analyzed by XRPD.
Examples of solvents include, but are not limited to, 1,4 dioxane, methanol, ethanol, propanol, butanol, butanone, ethoxyethanol, trifluoroethanol, methyl-THF, acetone, acetonitrile, anisole, chlorobenzene, DMSO, DMF, cumene, dichloromethane, ethyl acetate, ethylene glycol, heptane, isopropyl acetate, nitromethane, n-methylpyrrolidone, MIBK, t-BME, tetrahydrofuran, toluene, water and mixtures thereof. The above technique was used to generate the images in FIG. 8, FIG. 9, FIG. 10, FIG. 11, FIG. 12, FIG. 14.

[2] = Thermodynamic solubility in water at pH 4.2; details: for Observations at T = 24 hours: 30 mg/mL in water at pH 4.2, agitated at ambient temperature ca. 24 hours; for Observations at T = 0 hours: 30 mg/mL in water at pH 4.2, ambient temperature
Method: Thermodynamic solubility was carried out for Pattern 1, Pattern 2/6 mixture, Pattern 3, amorphous di-HCl salts and Pattern 7 in water at pH 4.2. All samples were prepared at 30 mg/mL. Initial observations were made. The samples were agitated at ambient temperature for ca. 24 hours. The samples were collected and observations made. Observed solids were isolated via centrifugation. The mother liquor from the filtered sample was analyzed by HPLC. The pH 4.3 solution was prepared by diluting glacial acetic acid (11.6 mL) to 100 mL in deionized water, then adding sodium acetate (1.07 g) and acetic acid solution (5.9 mL) preparing up to 500 mL with deionized water; then the pH was adjusted to 4.2. The above technique was used to generate the images in FIG. 60.

[3] = Solubility of trilaciclib (general statement)

Approx. Solubility ([1]; 1,4-Dioxane, heated to ca. 40° C. where no dissolution): <5000 µg/mL | Approx. Solubility ([1]; 1-Butanol, heated to ca. 40° C. where no dissolution): <5000 µg/mL | Approx. Solubility ([1]; 2,2,2-Trifluoroethanol): >200000 µg/mL | Approx. Solubility ([1]; 2-Butanone, heated to ca. 40° C. where no dissolution): <5000 µg/mL | Approx. Solubility ([1]; 2-Ethoxyethanol, heated to ca. 40° C. where no dissolution): <5000 µg/mL | Approx. Solubility ([1]; 2-Methyl THF, heated to ca. 40° C. where no dissolution): <5000 µg/mL | Approx. Solubility ([1]; 2-Propanol, heated to ca. 40° C. where no dissolution): ca 5 mg/mL | Approx. Solubility ([1]; Acetone, heated to ca. 40° C. where no dissolution): <5000 µg/mL | Approx. Solubility ([1]; Acetonitrile/water (90:10% v/v), heated to ca. 40° C. where no dissolution): <5000 µg/mL | Approx. Solubility ([1]; Acetonitrile, heated to ca. 40° C. where no dissolution): <5000 µg/mL | Approx. Solubility ([1]; Anisole, heated to ca. 40° C. where no dissolution): <5000 µg/mL | Approx. Solubility ([1]; Chlorobenzene, heated to ca. 40° C. where no dissolution): <5000 µg/mL | Approx. Solubility ([1]; Cumene, heated to ca. 40° C. where no dissolution): ca 5 mg/mL | Approx. Solubility ([1]; DMF, heated to ca. 40° C. where no dissolution): <5000 µg/mL | Approx. Solubility ([1]; DMSO, heated to ca. 40° C. where no dissolution): ca 5 mg/mL | Approx. Solubility ([1]; Deionized Water): >200000 µg/mL | Approx. Solubility ([1]; Dichloromethane, heated to ca. 40° C. where no dissolution): <5000 µg/mL | Approx. Solubility ([1]; Ethanol/water (85:15% v/v), heated to ca. 40° C. where no dissolution): <5000 µg/mL | Approx. Solubility ([1]; Ethanol, heated to ca. 40° C. where no dissolution): ca 5 mg/mL | Approx. Solubility ([1]; Ethyl Acetate, heated to ca. 40° C. where no dissolution): <5000 µg/mL | Approx. Solubility ([1]; Ethylene glycol): 50000 µg/mL | Approx. Solubility ([1]; Heptane, heated to ca. 40° C. where no dissolution): <5000 µg/mL | Approx. Solubility ([1]; Isopropyl acetate, heated to ca. 40° C. where no dissolution): <5000 µg/mL | Approx. Solubility ([1]; Methanol/water (95:5% v/v)): 20000 µg/mL | Approx. Solubility ([1]; Methanol, heated to ca. 40° C. where no dissolution): ca 5 mg/mL | Approx. Solubility ([1]; Methyl isobutyl ketone, heated to ca. 40° C. where no dissolution): <5000 µg/mL | Approx. Solubility ([1]; N-Methylpyrrolidone, heated to ca. 40° C. where no dissolution): <5000 µg/mL | Approx. Solubility ([1]; Nitromethane): 33000 µg/mL | Approx. Solubility ([1]; Tetrahydrofuran/water (99:1% v/v), heated to ca. 40° C. where no dissolution): <5000 µg/mL | Approx. Solubility ([1]; Tetrahydrofuran, heated to ca. 40° C. where no dissolution): <5000 µg/mL | Approx. Solubility ([1]; Toluene, heated to ca. 40° C. where no dissolution): <5000 µg/mL | Approx. Solubility ([1]; t-Butylmethyl ether, heated to ca. 40° C. where no dissolution): <5000 µg/mL | Observations at T = 24 hours [2]: Yellow solution | Observations at T = 0 hours [2]: Yellow solution (dissolved
SMILES: CN1CCN(c2ccc(Nc3ncc4cc5n(c4n3)C3(CCCCC3)CNC5=O)nc2)CC1.Cl.Cl [Amorphous Di-HCl]

Observations at T = 24 hours [2]: Off-white slurry | Observations at T = 0 hours [2]: Off-white slurry
SMILES: CN1CCN(c2ccc(Nc3ncc4cc5n(c4n3)C3(CCCCC3)CNC5=O)nc2)CC1 [Pattern 7, 2′-((5-(4-methylpiperazin-1-yl)pyridin-2-yl)amino)-7′,8′-dihydro-6′H-spiro[cyclohexane-1,9′-pyrazino[1′,2′:1,5]pyrrolo[2,3-d]pyrimidin]-6′-one]

solubility in DMSO ([3]; DMSO): practically insoluble | solubility in water ([3]; water): not very soluble
SMILES: CN1CCN(c2ccc(Nc3ncc4cc5n(c4n3)C3(CCCCC3)CNC5=O)nc2)CC1 [trilaciclib, 2′-((5-(4-methylpiperazin-1-yl)pyridin-2-yl)amino)-7′,8′-dihydro-6′H-spiro[cyclohexane-1,9′-pyrazino[1′,2′:1,5]pyrrolo[2,3-d]pyrimidin]-6′-one]
